From patent US10308617B2, “Triazole benzamide derivatives and the compositions and methods of treatment regarding the same” (An2H Discovery Limited, priority 2016, dated 2019)

Molecular target: Parkin (Homo sapiens, UniProt O60260)
Assay: Parkin pUB Auto-ubiquitinylation Assay (TR-FRET)
Format: biochemical
Settings: Parkin activation, pUb activated Parkin; read-out: Auto-ubiq EC50 (μM) [Example 3]
Excerpt: A Parkin pUB Auto-ubiquitinylation Assay is used to evaluate a compound's potency to activate Parkin's ability to Auto-ubiquitinylate itself.
The principle of this assay is that the E3 Ligase Parkin catalyzes the transfer of Ubiquitin to target proteins, but also has the ability to auto-ubiquitinylate itself. The phospho-Ubiquition (pUb) added to the assay alters the Parkin to a state where small molecule activators can enable the Parkin to auto-ubiquitinylate though the E1-E2 cascade reaction. The use of a Eu cryptate Ubiquition and anti 6His-d2 that binds to the His tagged Parkin will give a signal when the Eu cryptate Ubiquition is auto-ubiquitinylate onto the Parkin which can be monitored by TR-FRET.
Similar to the Activity-based probe assay in Example 2, screening for activating compounds can be distinguished from the controls as follows: • 100% activation signal=pUb activated Parkin+40 nM control activator in DMSO. • 0% activation signal=pUb activated Parkin+DMSO only. • Parkin activators can be identified by an increase of the 0% activation signal TR-FRET signal. Materials: • Assay Plate: White 384 well plate (Corning 3572) • Enzyme 1: E1 (Ubiquitin-activating enzyme/UBE1 Boston Biochem E-305) • Enzyme 2: E2 (UBcH7/Ube2L3 Boston Biochem E2-640) • Enzyme 3: Parkin-His tagged 203 μM (10.5 mg/ml) • pUb: Phospho-Ubiquitin (S65) (Boston Biochem U-102) • Eu Cryptate Reagent: Ubiquitin Eu (CisBio 61UBIKLA) • DMSO: DMSO (Sigma-34869-2.5L) • Reaction Buffer: 50 mM HEPES, 50 mM NaCl, 1 mM MgCl2, 0.005% Tween 20, 0.1% PF-127 (Fisher Scientific 50-310-494), pH 8.5 • Detection Buffer: 50 mM HEPES, 50 mM NaCl, 800 mM KF, 5 mM EDTA, 0.005% Tween 20, 0.1% PF-127, pH 8.5 • Detection Reagent Z: 13.4 nM Anti-6His-d2 in detection buffer • d2 Reagent: Anti-6His-d2 (CisBio 61HISDLA)
Enzyme Reaction (15 min pre-incubation with Parkin, pUb and activator only) • Parkin: 196 nM • pUb: 196 nM • DMSO: 1% DMSO • E1: 5 nM • E2: 50 nM • Ubiquitin Eu: 8.8 nM • Reaction time: 120 minutes • Temperature: 22° C. • Total volume: 10 μl reaction
Take 10 μl of Enzyme Reaction above and add 10 μl detection Reagent Z under the following conditions:
Assay Procedure: • 1) Load assay plate wells with 4.9 μl 400.0 nM Parkin, 400 nM pUb in reaction buffer by use of Eppendorf 12-channel pipette. • 2) Deliver 0.1 μl 100× activator candidates in DMSO by use of Echo 555 compound dispenser. Highest 100× concentration=100 μm and then twofold dilutions. Add each compound and control in duplicate wells. • 3) Spin 1000 rpm, 2 minutes, at room temp. • 4) Incubate plate for 15 minutes at room temp. • 5) Add 5 μl 10 nM E1, 100 nM E2, 17.6 nM Ubiquitin Eu and 2 mM ATP in Reaction Buffer by use of Eppendorf 12-channel pipette. • 6) Spin 1000 rpm, 2 minutes, at room temp. • 7) Incubate plate for 120 minutes at room temp. • 8) Add 10 μl 13.4 nM anti his d2 in detection buffer by use of Eppendorf 12-channel pipette. • 9) Spin 1000 rpm, 2 minutes, at room temp. • 10) Incubate plate for 120 minutes at room temp. • 11) Read plates on Perkin Elmer Envision instrument with the following parameters: • LANCE dual laser protocol loaded into the Envision® software • Top Mirror: LANCE/DELFIA Duel/Bias (Bar code 446) • Emission Filter: APC 665 EM (Bar code 205) • 2nd Emission Filter: Europium 615 EM (Bar code 203) • Read 655 nm (channel 1) and 615 nm (channel 2) wavelengths on Envision®
Data Analysis: The Data can be read in CSV files. There are two tables in those CSV files, which are the values of 655 nm (channel 1) and 615 nm (channel 2) wavelengths respectively. The data is converted to an HTRF Ratio=(Channel 1/Channel 2)*10,000
The average of all the 0 uM controls (DMSO only)=BKGD (Background—0% activation). Subtract BKGD from each HTRF Ratio value=HTRF-BKGD. The average of all the […] control activator in DMSO controls=Max (100% activation). The following equation is then used to calculate % Activation for each well/candidate as follows: % Activation=(HTRF-BKGD/Max)*100. […]

Sequence of Parkin (O60260 whole entry, other chains not shown): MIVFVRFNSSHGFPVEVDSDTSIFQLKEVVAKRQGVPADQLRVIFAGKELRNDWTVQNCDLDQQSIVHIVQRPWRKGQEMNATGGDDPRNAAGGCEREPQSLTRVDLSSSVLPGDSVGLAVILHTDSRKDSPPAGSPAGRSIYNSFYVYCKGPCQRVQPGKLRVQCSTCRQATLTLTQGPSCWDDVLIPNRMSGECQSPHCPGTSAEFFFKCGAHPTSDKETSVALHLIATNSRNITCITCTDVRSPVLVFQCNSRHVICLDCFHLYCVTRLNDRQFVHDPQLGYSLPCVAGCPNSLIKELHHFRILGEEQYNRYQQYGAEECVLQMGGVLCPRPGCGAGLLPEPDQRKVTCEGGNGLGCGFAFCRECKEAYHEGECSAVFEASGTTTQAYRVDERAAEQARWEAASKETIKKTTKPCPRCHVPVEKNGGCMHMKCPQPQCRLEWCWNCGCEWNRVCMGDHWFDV

EC50, > 40 µM:
O=C(Nc1nc(NC(=O)c2ccccc2)n(-c2ccc(-c3ccccc3)cc2)n1)c1ccccc1 [Compound X1]
Cc1ccccc1C(=O)Nc1nc(NC(=O)c2ccccc2C)n(-c2ccccn2)n1 [Compound X2]
O=C(Nc1nc(-c2ccccn2)nn1-c1ccccc1)c1ccccc1 [Compound Y1, N-(1-phenyl-3-(pyridin-2-yl)-1H-1,2,4-triazol-5-yl)benzamide]
O=C(Nc1nc(NC(=O)c2ccccc2)n(-c2ccc(OC(F)(F)F)cc2)n1)c1ccccc1 [Compound Z1]
O=C(Nc1nc(NC(=O)c2ccc(I)cc2)n(-c2ccccc2)n1)c1ccc(I)cc1 [D]
CN(C(=O)c1ccccc1)c1nc(NC(=O)c2ccccc2)n(-c2ccccc2)n1 [G]
O=C(Nc1nc(Nc2ncnc3ccccc23)nn1-c1ccccc1)c1ccccc1 [I]
CN(C(=O)c1ccccc1)c1nc(N(C)C(=O)c2ccccc2)n(-c2ccccc2)n1 [J]
Cc1ccccc1-n1nc(NC(=O)c2ccccc2)nc1NC(=O)c1ccccc1 [M]
O=C(Nc1nc(-c2ccccn2)nn1-c1ccccc1)c1ccccc1 [T]
O=C(Nc1nc(Nc2nccc3ccccc23)n(-c2ccccc2)n1)c1ccccc1 [U]
CN(C(=O)c1ccccc1)c1nc(NC(=O)c2ccccc2)nn1-c1ccccc1 [V]
CCN(CC)c1nc(Nc2nc(NC(=O)c3ccccc3)nn2-c2ccccc2)c2ccccc2n1 [W]
CCN(CC)c1nc(Nc2nc(NC(=O)c3ccccc3)nn2-c2ccccc2)nc2ccccc12 [X]
O=C(Nc1nc(Nc2ncnc3ccccc23)n(-c2ccccc2)n1)c1ccco1 [Z]
